Assays:
RSV A2 VR-1540 = assay: Plaque Reduction Assay 2 (HEp-2 cells, virospot count); format: cell-based; conditions: human respiratory syncytial virus, 24 h; RSV A2, HEp-2 cells, 1 day
Description: Plaque Reduction Assay 2:
This RSV plaque reduction assay is an infectivity assay which allows quantification of the number of infectious units in a distinct foci of RSV infection. This is indicated by zones of viral antigen detected by specific antibody staining within a monolayer of otherwise healthy tissue culture cells. As each plaque originates from a single infectious virus particle an accurate calculation of the anti-viral effect can be obtained by counting plaques in the presence and absence of an anti-viral compound. HEp-2 cells (ATCC, CCL23) were passaged in flasks and seeded in 96-well plates in DMEM containing antibiotics and supplemented with 10% FBS. During inoculation and subsequent incubation, cells were cultured in DMEM containing 3% FBS. 100 plaque forming unit (PFU)/well of RSV (RSV A2 VR-1540) was mixed with ten serial dilutions of compound. Subsequently, 100 μL of the virus/compound mixtures was added to confluent HEp-2 cell monolayers. The cells and virus/compound mixtures were incubated at 35° C. in a humidified 5% CO2 incubator for 1 day.
Cells were washed twice with PBS before adding 50% v/v EtOH/MeOH, and then stored at −20° C. On the day of the staining, fixative was first removed from the plates. Plates were washed 3× with PBS. A pre-titrated amount of the primary antibody was added in 60 μL PBS/2% milk powder, and plates incubated for 1 h at rt. The plates were washed 3× with PBS/0.05% Tween20 before addition of goat anti-mouse horse radish peroxidase in 60 μL PBS/2% milk powder, and incubated for 1 h at rt. Following three wash steps with PBS/0.05% Tween20, 60 μL ready-to-use TrueBlue was added and plates were incubated at rt for 10-15 min before adding MilliQ water. Plates were washed once with water, incubated for 30-60 min and after removal of water, air-dried in the dark.
Plates were scanned and analyzed using the Immunospot S6 UV analyzer, which is equipped with BioSpot analysis software for counting immunostained plaques (virospots). Plaque counts were used to calculate % infection relative to the mean of the spot count (SC) in the virus control wells for RSV. IC50/IC90 values were calculated as 50% or 90% reduction in signal, respectively, by interpolation of inhibition curves fitted with a 4-parameter nonlinear regression with a variable slope in GraphPad 5.0 (Prism).

[1] = Liver microsomal stability, human; format: in vitro ADME; conditions: both sexes, pooled liver microsomes, pH 7.4, 0.5 mg/mL protein, read-out: Liver Microsomal Stability (T1/2/mins) human
Description: (§1) Microsomal Incubation: Experimental Procedure
(§2) Pooled human liver microsomes (pooled male and female), pooled rat liver microsomes (male Sprague Dawley rats) and pooled dog liver microsomes (male Beagle dog) are purchased from a reputable commercial supplier and stored at −80° C. prior to use.
(§3) Microsomes (final protein concentration 0.5 mg/mL), 0.1 M phosphate buffer pH 7.4 and test compound (final substrate concentration 3 μM; final DMSO concentration 0.25%) are pre-incubated at 37° C. prior to the addition of NADPH (final concentration 1 mM) to initiate the reaction. The final incubation volume is 50 μL. A control incubation is included for each compound tested where 0.1 M phosphate buffer pH 7.4 is added instead of NADPH (minus NADPH). Two control compounds are included with each species. All incubations are performed singularly for each test compound.
(§4) Compounds are incubated for 0, 5, 15, 30 and 45 min. The control (minus NADPH) is incubated for 45 min only. […] Following protein precipitation, the sample supernatants are combined in cassettes of up to 4 compounds, internal standard is added and samples analysed by LC-MS/MS. From a plot of ln peak area ratio (compound peak area/internal standard peak area) against time, the gradient of the line is determined. Subsequently, half-life and intrinsic clearance are calculated

[2] = Liver microsomal stability, rat; format: in vitro ADME, Sprague Dawley rats; conditions: male, Sprague Dawley, pooled liver microsomes, pH 7.4, 0.5 mg/mL protein, read-out: Liver Microsomal Stability (T1/2/mins) rat
Description: as §1, §2, §3, §4

[3] = Liver microsomal stability, dog; format: in vitro ADME; conditions: male, Beagle, pooled liver microsomes, pH 7.4, 0.5 mg/mL protein, read-out: Liver Microsomal Stability (T1/2/mins) dog
Description: as §1, §2, §3, §4

P-gp (MDR1), human = assay: in vitro; format: in vitro ADME; conditions: dog, MDCK-MDR1
Description: MDR I-MDCK Permeability: Experimental Procedure
MDR1-MDCK cells obtained from the NIH (Rockville, Md., USA) are used between passage numbers 6-30. Cells are seeded onto Millipore Multiscreen Transwell plates at 3.4×10^5 cells/cm2. The cells are cultured in DMEM and media is changed on day 3. On day 4 the permeability study is performed. Cell culture and assay incubations are carried out at 37° C. in an atmosphere of 5% CO2 with a relative humidity of 95%. On the day of the assay, the monolayers are prepared by rinsing both basolateral and apical surfaces twice with Hanks Balanced Salt Solution (HBSS) at the desired pH warmed to 37° C. Cells are then incubated with HBSS at the desired pH in both apical and basolateral compartments for 40 min to stabilise physiological parameters.
The dosing solutions are prepared by diluting test compound with assay buffer to give a final test compound concentration of 10 μM (final DMSO concentration of 1% v/v). […]
Test compound permeability is assessed in duplicate. […]
Test and control compounds are quantified by LC-MS/MS cassette analysis using an 8-point calibration with appropriate dilution of the samples. The starting concentration (C0) is determined from the dosing solution and the experimental recovery calculated from C0 and both apical and basolateral compartment concentrations. […]

Question: With `NC1CCN(c2ncc(CN3C(=O)C4(CC4)c4ccc(F)cc43)c(N[C@H]3CC[C@H](O)CC3)n2)C1` (stereo partly drawn) [Compound 2, 1′-((2-(3-Aminopyrrolidin-1-yl)-4-(((1r,4r)-4-hydroxycyclohexyl)amino)pyrimidin-5-yl)methyl)-6′-fluorospiro[cyclopropane-1,3′-indolin]-2′-one] as the compound, how does the IC50 (RSV A2 VR-1540) read?
Answer: 58 nM

Question: And the half-life at 3 μM [1]?
Answer: 2.82 h

Question: And the half-life at 3 μM [2]?
Answer: 2.17 h

Question: What about the half-life at 3 μM [3] of the same compound?
Answer: > 4 h

Question: What about the Papp A→B at 60 min, 10 μM (P-gp (MDR1), human) of the same compound?
Answer: 0.32 ×10⁻⁶ cm/s

Question: What about the Papp B→A at 60 min, 10 μM (P-gp (MDR1), human) of the same compound?
Answer: 7.99 ×10⁻⁶ cm/s

From patent US10603319B2, “Pyrimidine derivatives and their use in treating or preventing a respiratory syncytial virus infection” (REVIRAL LIMITED, priority 2016, dated 2020)
